Experimental data as given in patent US5719129A, “Derivative of caffeic acid, oraposide, and cosmetic or pharmaceutical compositions, in particular dermatological compositions, containing it” (priority 1993, dated 1998).

How the values were obtained:
A.R. - Rat lens = target: T1, A.R. - Rat lens (Rattus norvegicus, UniProt P07943); assay: Inhibition of aldose reductase, rat lens; type: biochemical
T1 construct: crude enzyme extract isolated from lenses freshly obtained from bovines and rats; from tissue; host or cells: rat lens, crude enzyme extract
Description: (§1) Enzyme inhibition was evaluated in vitro using a crude enzyme extract isolated from lenses freshly obtained from bovines and rats. The principle of the reaction is as follows: [drawing 3]
(§2) This reaction takes place at PH=6.2 at ambient temperature and extinctions were measured at 340 nm. The molecules tested were dissolved in twice-distilled water.

A.R. calf lens = target: T2, A.R. calf lens (Bos taurus, UniProt P16116); assay: Inhibition of aldose reductase, calf lens; type: biochemical, bovine (calf)
T2 construct: crude enzyme extract isolated from lenses freshly obtained from bovines and rats; from tissue; host or cells: calf (bovine) lens, crude enzyme extract
Description: as §1, §2
The aldose reductase inhibiting activity of the various heteroside caffeic esters (1) and (2) correspond to two different series of experiments.

human keratinocytes [1] = assay: Cytotoxicity in keratinocyte culture (LDH release); settings: for cytotoxicity (in words) / % increase in OD with respect to the control (+DMSO), D1 / % increase in OD with respect to the control (+DMSO), D2 / % increase in OD with respect to the control (+DMSO), D3: 200 μM; for cytotoxicity (in words): LDH release; for % increase in OD with respect to the control (+DMSO), D1: day 1, mean of 3 measurements; for % increase in OD with respect to the control (+DMSO), D2: day 2, mean of 3 measurements; for % increase in OD with respect to the control (+DMSO), D3: day 3, mean of 3 measurements
Description: Culture medium: DMEM (1/2), HAM F12 (1/2) basic medium (from the Gibco company), with added 5% foetal calf serum (from the Intermed company).
Cultures were prepared in 60 mm petri dishes (NUNC), seeding density: 5000 cells per cm^2.
The compounds were tested in solution in DMSO at 200 μM, the control cultures containing an identical amount of solvent.
The amount of LDH released into the culture medium after daily treatment with anti-free-radical molecules was determined after 24 hours and then for 6 days.
The supernatant from the culture was contacted with sodium pyruvate and NADH, and the kinetics of LDH activity were measured spectrophotometrically (Boehringer kit).

human keratinocytes [2] = assay: Anti-free-radical activity in keratinocyte cultures (MDA production); type: cell-based; settings: for inhibition at 100 µM: Homo sapiens, Keratinocyte, 2 h, 2 hours incubation, mean of 3 measurements
Description: The anti-free-radical activity of oraposide was investigated on a line of human keratinocytes in culture, in comparison with well known anti-free-radical agents.
The protective activity of the anti-free-radical agent was evaluated by measuring malonaldehyde (MDA) in the culture medium (reflecting the lipoperoxidation of cell membrane lipids) after the cells had been brought into contact with a source of oxygenated free radicals (after the method of Z. A. Placer et al., 1966, Anal. Biochem. 16, 359-64, reference cited above).
Cells: human keratinocytes from a squamous carcinoma.
One week after seeding the merged single layer of cells was processed with […] of a solution containing an oxygenated radical generator consisting of vitamin C 10^-3 M, FeCl3 10^-4 M, FeSO4 10^-4 M in pH 8 PBS buffer to which the molecule being tested was added (=reaction medium).
After incubation at 37° C. for 2 hours this incubation medium was recovered for the determination of MDA.
After 2 hours incubation with the cells the 500 μl of reaction medium was sampled and thiobarbituric acid was added in order to determine MDA at 532 nm.
The results are stated as % inhibition of MDA production.
The investigation was performed at a concentration of 100 μM for the 3 materials after 2 hours incubation with the reaction mixture. The MDA produced, determined by spectrophotometry, provided results which are expressed as % inhibition of this production in comparison with the controls (reaction medium alone).

rabbit liver microsomes = assay: Lipoperoxidation inhibition in liver microsomes (malonyl dialdehyde formation); type: biochemical
Description: Verbascoside, oraposide and arenarioside are heteroside esters of caffeic acid and the acids cited are other esters of caffeic acid.
A lipoperoxidation reaction takes place when rabbit liver microsomes are incubated in the presence of NADPH.
The microsomes were recovered from the processing of hepatocytes with ultrasound.
Lipoperoxidation was evaluated through the formation of malonyl dialdehyde in accordance with the method by Placer et al., 1966 (Analyt. Biochem. 16,359-364).
The reaction was performed in the absence of (control) and in the presence of caffeic acid or oraposide in a concentration of 5.10^-5 M or in the presence of α-tocopherol (Sigma) at 5.10^-5 M (known inhibiting activity reference).

[3] = test system: micromycete contaminants commonly found in foodstuffs; assay: Antifungal activity against micromycete contaminants of foodstuffs (25 species); type: cell-based; set-up: Strains whose growth was inhibited or diminished: concentration or dose not given beside the values; settings: 25 species of fungi
Description: (§3) It is known that a number of caffeic acid derivatives inhibit the growth of bacteria and fungi. This property has been confirmed for oraposide with 40 different strains belonging to 10 genera of bacteria, and 25 different strains belonging to 25 species of fungi.
Antifungal activity was tested in relation to micromycete contaminants commonly found in foodstuffs. The test was performed with 25 species belonging to the Adelomycetes (e.g. Alternaria tenuis, Fusarium avenceum, Geotricom candidum, etc.), Mucorales (e.g. Mucor mucedo, Cunninghamella elegans, Rhizopus nigricans, etc.), Endomycetes (e.g. Candida lipolytica, Saccharomyces cerevisiae, etc.), Plectomycetes (e.g. Aspergillus clavatus, A. niger, Penicillium chrysogenum, P. rubturm, etc.), and Pyrenomycetes (e.g. Chaetomium globosum, Sordaria himicola, etc.).

Staphylococcus aureus = assay: Antibacterial effect, 29 strains of Staphylococcus aureus; type: cell-based
[4] = UV absorption of oraposide compared with sunscreen filters (integration of UVB and UVA peak surface areas); type: physicochemical
From the text: Integration of the surface areas of the UVB peaks can be used to compare oraposide with Parsol MCX®, from which it can be seen that the UVB absorption activity of oraposide is 0.4 times that of Parsol MCX®. If the surface area of the UVA peak of oraposide is integrated and compared with Parsol 1 789®, it will be seen that the UVA absorption of oraposide is approximately 0.2 times that of Parsol 1 789®.

aldose reductase = assay: Inhibition of aldose reductase, comparison in the conclusion (species not given); type: biochemical; settings: value given in conclusion, species not specified; read-out: IC 50 (conclusion)
From the text: The four molecules inhibit aldose reductase from both cattle and rats.

Parkinson's disease = assay: Effect in Parkinson's disease on abnormal movements and secondary disturbances due to treatment with L-dopa; type: in vivo; settings: associated with L-dopa
From the text: (§4) In accordance with a particular embodiment of the invention within the context of antitremor treatment, in particular in Parkinson's disease, the composition according to the aforesaid invention also contains a therapeutically effective amount of L-dopa. In fat oraposide and its derivatives of formula I aforesaid have a potentiating activity for L-dopa in its antitremor activity, which is effective in particular in Parkinson's disease. Oraposide and its derivatives of formula I aforesaid associated with L-dopa in fact experimentally reduce tremor caused by a tremor-inducing factor in animals and in man. In Parkinson's disease an improvement in abnormal movements (of the choreic type) and other secondary disturbances due to treatment with L-dopa is found.

[5] = test system: tremor caused by a tremor-inducing factor; assay: Antitremor activity in association with L-dopa against a tremor-inducing factor, in animals and in man; type: in vivo; settings: associated with L-dopa
From the text: as §4

rabbit hepatocytes [6] = assay: LDH release by hepatocytes in primary culture intoxicated with chloroform; type: cell-based; settings: oraposide 5.10^-5 M; chloroform 10^-4 M; 3, 7 and 24 hours (FIG. 2)
From the text: As in FIG. 1, reference 1 indicates the results obtained with untreated cultures, reference 2 the results obtained with cultures treated with 10^-4 M chloroform, and reference 3 the results obtained with cultures treated with a combination of 10^-4 M chloroform and oraposide in a concentration of 5.10^-5 M. Chloroform is also a hepatotoxic agent.
(§5) The experimental model selected was investigation of the release of lactate dehydrogenase (LDH) by rabbit hepatocytes in primary culture, this LDH release representing a marker of hepatocyte deterioration.
(§6) The hepatocytes were deliberately intoxicated with nitroxynil (10^-4 to 10^-5 M) or chloroform (10^-3 to 10^-5 M) .
(§7) The effect of oraposide was evaluated for a final concentration of 0.05 mM in the culture medium.

rabbit hepatocytes [7] = assay: Cell toxicity of oraposide itself on hepatocytes; type: cell-based; settings: even at a concentration of 100 μM
From the text: as §5

bacterial strains = assay: Antibacterial effect, 40 strains belonging to 10 genera of bacteria; type: cell-based; settings: doses of 0.5 mg/ml and above
From the text: as §3
The bacterial strains tested were: Staphylococcus aureus, Streptococcus (group A and group D), Escherichia coli, Klebsiella pneumoniae, Proteus sp., Providentia sp., Serratia marcescens, Enterobacter cloacae, Pseudomonas aeruginosa, Salmonella (S. typhi and S. para-typhi).

rabbit hepatocytes [8] = assay: LDH release by hepatocytes in primary culture intoxicated with nitroxynil; type: cell-based; settings: oraposide 5.10^-5 M (0.05 mM); nitroxynil 10^-4 M; 3 and 7 hours (FIG. 1)
From the text: Reference 1 in the two blocks of histograms indicates the results obtained with untreated cultures, acting as controls, reference 2 indicates histogram blocks obtained using cultures treated with nitroxynil at a concentration of 10^-4 M, reference 3 indicates histogram blocks obtained with cultures treated with nitroxynil in a concentration of 10^-4 M and verbascoside in a concentration of 5.10 ^-5 M, reference 4 indicates histogram blocks obtained with cultures treated with nitroxynil in a concentration of 10^-4 M and oraposide in a concentration of 5.10^-5 M, and reference 5 indicates histogram blocks obtained with cultures treated with nitroxynil in a concentration of 10^-4 M and arenarioside in a concentration of 5.10^-5 M. Nitroxynil is a hepatotoxic agent, verbascoside and arenarioside are other heteroside esters of caffeic acid which are known to those skilled in the art.
as §5, §6, §7

[9] = 5.10^-5 M, microsomes with NADPH (FIG. 3)

## C[C@@H]1OC(O[C@@H]2[C@@H](O)[C@H](OCCc3ccc(O)c(O)c3)O[C@H](CO[C@@H]3OC[C@@H](O)[C@H](O)[C@H]3O)[C@H]2OC(=O)/C=C/c2ccc(O)c(O)c2)[C@H](O)[C@H](O)[C@H]1O (stereo partly shown) [Arenarioside]
A.R. - Rat lens
  IC50: 4.18 µM
A.R. calf lens; series (1)
  IC50: 2.38 µM
A.R. calf lens; series (2)
  IC50: 1.47 µM

## Cc1cc(C(C)(C)C)c(O)c(C(C)(C)C)c1 [BHT, reference compound]
Human keratinocytes [1]
  cytotoxicity (in words): high cytotoxicity
Human keratinocytes [2]
  inhibition at 100 µM: 64 ± 2%

## O=C(O)/C=C/c1ccc(O)c(O)c1 [Caffeic acid, 3,4-dihydroxycinnamic acid]
Rabbit liver microsomes; [9]
  inhibition of lipoperoxidation (in words): equivalent inhibiting activity
[3]
  Strains whose growth was inhibited or diminished: 83%
  Strains whose growth was inhibited by an MIC <10 mg/ml: 52%

## O=C(/C=C/c1ccc(O)c(O)c1)O[C@@H]1C[C@](O)(C(=O)O)C[C@@H](O)[C@H]1O [Chlorogenic acid]
[3]
  Strains whose growth was inhibited or diminished: 80%
  Strains whose growth was inhibited by an MIC <10 mg/ml: 40%

## CC1OC(OC2C(OC(=O)C=Cc3ccc(O)c(O)c3)C(CO)OC3OCC(c4ccc(O)c(O)c4)OC32)C(O)C(O)C1O [Oraposide, 3-0-(α-L-rhamnopyranosyl)-[2-(3,4-dihydroxyphenyl)-1,2-ethylidene]-β-D-glucopyranoside 4-caffeate]
Rabbit liver microsomes; [9]
  inhibition of lipoperoxidation: 100%
  inhibition of lipoperoxidation (in words): stronger inhibition
Rabbit liver microsomes; free radical generator CCl4
  inhibition of lipid oxidation potentiated by CCl4: 100%
Rabbit liver microsomes; free radical generator H2 O2
  inhibition of lipid oxidation potentiated by H2O2: 90%
Rabbit liver microsomes; read-out: dose required to obtain 50% inhibition of lipoperoxidation, FIG. 4
  IC50: 10 µM
Staphylococcus aureus; 0.06 mg/ml
  inhibition at 60 µg/mL: 70%
Staphylococcus aureus; 0.12 mg/ml
  inhibition at 120 µg/mL: 80%
[4]; surface area of UVA peak, vs Parsol 1 789
  UVA absorption relative to Parsol 1 789: approximately 0.2 times
[4]; surface area of UVB peak, vs Parsol MCX
  UVB absorption activity relative to Parsol MCX: 0.4 times
Aldose reductase
  IC50: 0.16 µM
Parkinson's disease
  abnormal movements (of the choreic type) and other secondary disturbances due to treatment with L-dopa: improvement
Human keratinocytes [1]
  cytotoxicity (in words): no cytotoxic effect
  % increase in OD with respect to the control (+DMSO), D1: 0%
  % increase in OD with respect to the control (+DMSO), D2: 0%
  % increase in OD with respect to the control (+DMSO), D3: 0%
Human keratinocytes [1]; up to 200 μM
  cytotoxic effect up to a concentration of 200 μM: no cytotoxic effect
Human keratinocytes [2]; 100 μM
  protective power / anti-free-radical activity (in words): equally effective as BHT, but less effective than α-tocopherol
Human keratinocytes [2]; 1st experiment
  inhibition at 100 µM: 70 ± 3%
Human keratinocytes [2]; 2nd experiment
  inhibition at 100 µM: 60 ± 15%
[3]
  Strains whose growth was inhibited or diminished: 92%
  Strains whose growth was inhibited by an MIC <10 mg/ml: 64%
[5]
  tremor caused by a tremor-inducing factor: reduce tremor
A.R. - Rat lens
  IC50: 0.22 µM
Rabbit hepatocytes [6]
  release of LDH by hepatocytes intoxicated with chloroform: a less clear effect
Rabbit hepatocytes [7]
  cell toxicity: no cell toxicity
A.R. calf lens; series (1)
  IC50: 0.15 µM
A.R. calf lens; series (2)
  IC50: 0.165 µM
Bacterial strains
  inhibition of all bacterial strains: 100%
Rabbit hepatocytes [8]
  release of LDH by hepatocytes intoxicated with nitroxynil: very significantly reduces the release of LDH

## O=C(/C=C/c1ccc(O)c(O)c1)O[C@H](Cc1ccc(O)c(O)c1)C(=O)O [Rosmarinic acid]
[3]
  Strains whose growth was inhibited or diminished: 100%
  Strains whose growth was inhibited by an MIC <10 mg/ml: 96%

## C[C@@H]1O[C@@H](O[C@@H]2[C@@H](O)[C@H](OCCc3ccc(O)c(O)c3)O[C@H](CO)[C@H]2OC(=O)/C=C/c2ccc(O)c(O)c2)[C@H](O)[C@H](O)[C@H]1O [Verbascoside]
[3]
  Strains whose growth was inhibited or diminished: 72%
  Strains whose growth was inhibited by an MIC <10 mg/ml: 44%
A.R. - Rat lens
  IC50: 1.78 µM
A.R. calf lens; series (1)
  IC50: 1.6 µM
A.R. calf lens; series (2)
  IC50: 1.6 µM

## Cc1c(C)c2c(c(C)c1O)CCC(C)(CCCC(C)CCCC(C)CCCC(C)C)O2 (stereo not drawn) [α-tocopherol, reference compound]
Rabbit liver microsomes; [9]
  inhibition of lipoperoxidation (in words): equivalent inhibiting activity
Human keratinocytes [1]
  cytotoxicity (in words): less pronounced
  % increase in OD with respect to the control (+DMSO), D1: 19 ± 2%
  % increase in OD with respect to the control (+DMSO), D2: 83 ± 20%
  % increase in OD with respect to the control (+DMSO), D3: 54 ± 8%
Human keratinocytes [2]
  inhibition at 100 µM: 100%
